From US10959938B2, “Combination of (3S,3S′) 4,4′-disulfanediylbis(3-aminobutane 1-sulfonic acid) and a second antihypertensive agent” (QUANTUM GENOMICS, priority 2011, dated 2021)

System: spontaneously hypertensive rats (SHR)
Test: Mean arterial blood pressure (MABP) and heart rate recording in conscious, unrestrained SHR after acute oral administration
Assay type: in vivo, rat
Details: 1 hour (FIG. 2)
Protocol: RB150, the ACEI, enalapril (supplied from Merck Sharp and Dohme research Lab), and the ARB, valsartan (Sigma-Aldrich), were dissolved in sterile saline and adjusted to pH 7.4 for in vivo administration.
Male spontaneously hypertensive rats (SHR), weighing 250 to 350 g, were obtained from Charles River Laboratories (L'Arbresle, France) and animals were kept under artificial light (12-hours light/12-hours dark cycle) with a normal standard diet and water given ad libitum. The experiments were conducted according to the National Institutes of Health Guide for the Care and Use of Laboratory Animals.
Twelve weeks male SHR were anesthetized with pentobarbital sodium (60 mg/kg, i.p, Centravet). Catheters were implanted in the femoral artery. The femoral arterial catheter was brought under the skin and emerged at the nape of the neck. After surgery, each rat was given an intraperitoneal injection of 0.1 mL of penicillin-streptomycin (50,000 units/mL; Sigma) and allowed to recover for at least 24 hours before the experiment. […] Each experiment was monitored by using a COBE CDX III pressure transducer (Phymep, Paris, France) connected to the MacLab system (Phymep) consisting of a MacLab hardware unit and chart software running on a Macintosh computer. […]

Row | Compound | BP decrease 1 hour after drug administration (RB150 alone 150 mg/kg po) | BP decrease 1 hour after drug administration (enalapril alone 3 mg/kg po)
1 | N[C@@H](CCS(=O)(=O)O)CSSC[C@@H](N)CCS(=O)(=O)O [RB150, (3S,3S′) 4,4′-disulfanediylbis(3-aminobutane 1-sulfonic acid)] | did not induce any significant BP decrease | 
2 | CCOC(=O)[C@H](CCc1ccccc1)N[C@@H](C)C(=O)N1CCC[C@H]1C(=O)O [enalapril] |  | did not induce any significant BP decrease
